According to patent publication US10792283B2, “Quinoline analogs as phosphatidylinositol 3-kinase inhibitors” (HANGZHOU ZHENGXIANG PHARMACEUTICALS CO., LTD., priority 2016, dated 2020):
Where two headings read alike, the source gives them in different places.

Columns and labels:
[1] = biological target: PI3Kδ (Homo sapiens (Human), UniProt O00329); experiment: Enzymatic activity of PI3K isoforms, TR-FRET assay; type: biochemical; conditions: 10 μM ATP
Description: Enzymatic activity of the class I PI3K isoforms in the presence of the compounds of Table 1 above was measured using a time-resolved fluorescence resonance energy transfer (TR-FRET) assay.
The TR-FRET assay can monitor formation of the product 3,4,5-inositol triphosphate molecule (PIP3) as it competed with fluorescently labeled PIP3 for binding to the GRP-1 pleckstrin homology domain protein. An increase in […] product results in a decrease in TR-FRET signal as the labeled fluorophore is displaced from the GRP-1 protein binding site.
Control compound, PI-103, was tested in 10-dose IC50 with 3-fold serial dilution starting at 10 μm.
Data are normalized based on negative (DMSO) control. The alpha, beta, delta, and gamma IC50 values were calculated from the fit of the dose-response curves to a four parameter equation. IC50 are reported in units of nM.
IC50 values were obtained for all PI3K isoforms (α, β, δ, and γ), and Table 2 summarizes the IC50 data collected for PI3Kδ in this Example.

[2] = Hepatocyte stability (parent drug disappearance in cryopreserved hepatocytes); type: in vitro ADME, human; conditions: for half-life at 1 μM: human, cryopreserved hepatocytes
Description: The hepatocyte assay was used to evaluate the metabolic stability of test articles (TA) following incubation in cryopreserved hepatocytes by monitoring parent drug disappearance via […]. The TA with 1% final DMSO concentration was incubated with 0.5 million hepatocytes/ml at 1 μM substrate in duplicate. The incubation was carried out at 37° C. with 5% CO2 and saturating humidity. Samples were taken at 0, 1, 2, and 3 hours to monitor the disappearance of TA and a half-life (t ½) was determined. Table 2 below summarizes the t½ values (e.g. t ½) collected from this Example.

[3] = tested on: EHEB; experiment: Cytotoxicity assay (CTG, 72 h) in EHEB; type: cell-based; conditions: cell viability
Description: (§1) Cytotoxicity assay of compound 2 of Table 1 in selected cell lines
(§2) Day 0: cell seeding for all cell lines with the density of 10000 cells/80 μL/well.
(§3) Day 1, drug treatment: Prepare 3-fold serial dilutions of compound stock solutions with growth medium. Dispense 20 μL (5×) drμg solution in each well (duplicates for each concentration), the final DMSO concentration of each well treated with test compound and corresponding vehicle control is 0.1%. Incubate the plate for 72 h in specified incubator.
(§4) Day 4, plate reading: Thaw CTG solution and equilibrate to room temperature, add 100 μL of CTG per well, mix the contents for 2 min on the plate shaker, incubate for 10 min before recording the luminescence signal using Envision.

[4] = tested on: JVM-2; experiment: Cytotoxicity assay (CTG, 72 h) in JVM-2; type: cell-based
Description: as §1, §2, §3, §4

[5] = tested on: SU-DHL-4; experiment: Cytotoxicity assay (CTG, 72 h) in SU-DHL-4; type: cell-based
Description: as §1, §2, §3, §4

[6] = tested on: SU-DHL-5; experiment: Cytotoxicity assay (CTG, 72 h) in SU-DHL-5; type: cell-based
Description: as §1, §2, §3, §4

[7] = tested on: SU-DHL-6; experiment: Cytotoxicity assay (CTG, 72 h) in SU-DHL-6; type: cell-based
Description: as §1, §2, §3, §4

[8] = cited from earlier work
[9] = cited from earlier work; remark: listed apart in the source
[10] = PK profile after iv and PO dosing in rats; type: in vivo, SD rats
Description: Compound 2 was dosed by both iv and PO in the rats.

[11] = 1 μM substrate, 0.5 million hepatocytes/ml, 37° C., read-out: hepatocyte T1/2 (converted)
[12] = Homo sapiens, JVM-2, cell viability
[13] = Homo sapiens, SU-DHL-4, cell viability
[14] = Homo sapiens, SU-DHL-5, cell viability
[15] = Homo sapiens, SU-DHL-6, cell viability
[16] = IV, data from idelalisib NDA filing
[17] = oral, data from idelalisib NDA filing
[18] = human hepatocytes, Table 3 comparison, read-out: T ½
[19] = Sprague-Dawley, rat, in vivo, 1.32 mg/kg, iv, rats
[20] = Sprague-Dawley, rat, in vivo, po, 10 mg/kg, SD rats

Sequence of PI3Kδ (O00329 whole entry, canonical isoform): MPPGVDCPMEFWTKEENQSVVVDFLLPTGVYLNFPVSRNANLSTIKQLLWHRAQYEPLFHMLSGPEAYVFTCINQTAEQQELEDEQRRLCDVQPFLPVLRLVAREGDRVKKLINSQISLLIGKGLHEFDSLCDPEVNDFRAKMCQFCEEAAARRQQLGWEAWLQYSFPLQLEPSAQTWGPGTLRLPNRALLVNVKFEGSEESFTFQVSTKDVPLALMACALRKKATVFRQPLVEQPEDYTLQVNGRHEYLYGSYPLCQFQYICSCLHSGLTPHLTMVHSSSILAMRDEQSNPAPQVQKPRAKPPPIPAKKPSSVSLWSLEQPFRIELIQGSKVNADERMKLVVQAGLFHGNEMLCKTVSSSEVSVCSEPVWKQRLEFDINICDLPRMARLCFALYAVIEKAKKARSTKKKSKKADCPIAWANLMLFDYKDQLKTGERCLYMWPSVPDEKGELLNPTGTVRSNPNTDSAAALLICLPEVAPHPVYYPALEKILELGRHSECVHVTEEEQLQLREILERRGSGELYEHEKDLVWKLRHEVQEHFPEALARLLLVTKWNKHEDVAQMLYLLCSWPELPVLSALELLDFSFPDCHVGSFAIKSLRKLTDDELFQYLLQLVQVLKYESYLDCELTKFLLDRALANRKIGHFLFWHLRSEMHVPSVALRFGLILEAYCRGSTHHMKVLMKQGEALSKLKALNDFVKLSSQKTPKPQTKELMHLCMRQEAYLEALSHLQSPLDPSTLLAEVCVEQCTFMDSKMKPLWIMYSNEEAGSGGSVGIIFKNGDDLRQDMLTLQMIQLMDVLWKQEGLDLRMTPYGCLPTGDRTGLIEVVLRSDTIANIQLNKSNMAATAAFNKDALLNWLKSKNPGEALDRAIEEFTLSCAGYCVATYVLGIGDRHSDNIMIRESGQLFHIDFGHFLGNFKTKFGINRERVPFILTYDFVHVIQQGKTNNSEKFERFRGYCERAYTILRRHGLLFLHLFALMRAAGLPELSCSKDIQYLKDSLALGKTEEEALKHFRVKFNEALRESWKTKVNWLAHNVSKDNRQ
Sequence of PI3Kδ (P27986 whole entry partner, canonical isoform): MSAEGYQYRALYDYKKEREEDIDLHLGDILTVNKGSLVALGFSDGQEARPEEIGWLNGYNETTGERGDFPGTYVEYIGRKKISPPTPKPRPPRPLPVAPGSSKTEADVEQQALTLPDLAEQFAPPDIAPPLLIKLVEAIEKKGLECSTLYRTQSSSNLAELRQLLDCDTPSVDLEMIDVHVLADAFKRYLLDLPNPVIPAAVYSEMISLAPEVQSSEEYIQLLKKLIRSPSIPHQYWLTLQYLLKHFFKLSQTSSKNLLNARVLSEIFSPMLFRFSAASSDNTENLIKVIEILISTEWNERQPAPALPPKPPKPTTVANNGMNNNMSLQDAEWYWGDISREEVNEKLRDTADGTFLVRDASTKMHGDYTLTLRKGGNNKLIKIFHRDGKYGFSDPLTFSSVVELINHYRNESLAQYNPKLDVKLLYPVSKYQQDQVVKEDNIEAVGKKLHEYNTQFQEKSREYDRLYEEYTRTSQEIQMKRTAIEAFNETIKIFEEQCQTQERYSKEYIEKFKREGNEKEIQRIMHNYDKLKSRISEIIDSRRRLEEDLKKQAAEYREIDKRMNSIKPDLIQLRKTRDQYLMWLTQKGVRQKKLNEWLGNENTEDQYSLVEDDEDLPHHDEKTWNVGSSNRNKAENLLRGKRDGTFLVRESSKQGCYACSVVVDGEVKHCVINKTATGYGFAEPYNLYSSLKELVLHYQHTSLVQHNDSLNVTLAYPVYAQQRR

With C[C@H](Nc1nc(N)nc(N)c1C#N)c1cc2ccc(F)cc2nc1-c1ccccc1 [Compound 1, (S)-2,4-diamino-6-[1-(7-fluoro-2-phenyl-quinolin-3-yl)-ethylamino]-pyrimidine-5-carbonitrile] the IC50 [1] was 0.043 nM, the half-life at 1 μM [2, 11] was 27 h and the “improved stability in human hepatocytes (longer half-life), fold” value ([2]; versus compound D) was 2.7 ×.
Molecule CC[C@H](Nc1ncnc2[nH]cnc12)c1nc2cccc(F)c2c(=O)n1-c1ccccc1 [Idelalisib, idelalisib] has an IC50 [3] of 0.506 µM, an IC50 [4, 12] of 1.43 µM and an IC50 [5, 13] of 0.198 µM. For the same molecule, the IC50 [6, 14] was 1.68 µM, the IC50 [7, 15] was 0.13 µM and the “AUCinf” value [8, 16] was 1151 ± 407 ng·h/mL. The “Cl” value [8, 16] was 478 ± 19 mL/min/kg, the “Cmax” value [8, 16] was 1437 ± 220 ng/mL and the “Tmax” value [8, 16] was 0.08 h. The “VSS” value [8, 16] was 2.49 L/kg, the “AUCinf” value [8, 17] was 422 ± 67 ng·h/mL and the “Cmax” value [8, 17] was 129 ± 49 ng/mL. The “Tmax” value [8, 17] was 3.00 h, the “t1/2” value ([8]; rat, in vivo, iv) was 1.89 h and the “Fatal and/or serious hepatotoxicity, % of patients” value ([9]; combination trials) was 11%. The “Fatal and/or serious hepatotoxicity, % of patients” value ([9]; monotherapy) was 18%.
For C[C@H](Nc1ncnc(N)c1C#N)c1cc2ccc(F)cc2nc1-c1ccccc1S(C)(=O)=O [Compound E, reference compound], the half-life at 1 μM [2, 11] was 4.8 h.
In the case of C[C@H](Nc1ncnc(N)c1C#N)c1cc2cccc(F)c2nc1-c1ccccc1S(C)(=O)=O [F, reference compound], the half-life at 1 μM [2, 11] is reported as 5.9 h and the half-life at 1 μM [2, 18] is reported as less than 6 h.
Work on C[C@H](Nc1nc(N)nc(N)c1C#N)c1cc2ccc(F)cc2nc1-c1cc(F)cc(F)c1 [Compound 3, (S)-2,4-Diamino-6-{1-[2-(3,5-difluoro-phenyl)-7-fluoro-quinolin-3-yl]-ethylamino}-pyrimidine-5-carbonitrile] yielded an IC50 [1] of 0.24 nM and a half-life at 1 μM [2, 11] of 17 h.
With C[C@H](Nc1nc(N)nc(N)c1C#N)c1cc2ccc(F)cc2nc1-c1ccccc1S(C)(=O)=O [Compound 4, (S)-2,4-Diamino-6-{1-[7-fluoro-2-(2-methanesulfonyl-phenyl)-quinolin-3-yl]-ethylamino}-pyrimidine-5-carbonitrile] the IC50 [1] was 0.27 nM, the half-life at 1 μM [2, 11] was 6 h and the “improved stability in human hepatocytes (longer half-life), fold” value ([2]; versus compound E) was 1.3 ×.
With C[C@H](Nc1ncnc(N)c1C#N)c1cc2ccc(F)cc2nc1-c1ccccc1 [D, reference compound] the half-life at 1 μM [2, 11] was 10 h.
For C[C@H](Nc1nc(N)nc(N)c1C#N)c1cc2ccc(F)cc2nc1-c1ccccn1 [Compound 2, (S)-2,4-Diamino-6-[1-(7-fluoro-2-pyridin-2-yl-quinolin-3-yl)-ethylamino]-pyrimidine-5-carbonitrile], the IC50 [1] was 0.086 nM, the half-life at 1 μM [2, 11] was 53 h and the half-life at 1 μM [2, 18] was greater than 48 h. The AUC(0-inf) [10, 19] was 4550 ng·h/mL, the Cmax [10, 19] was 1090 ng/mL and the Tmax [10, 19] was 0.08 h. The clearance [10, 19] was 4.6 mL/min/kg, the half-life [10, 19] was 3.55 h and the Vd ([10]; Sprague-Dawley, rat, in vivo, 1.32 mg/kg, iv, rats, read-out: VSS) was 1.12 L/kg. For the same molecule, the AUC(0-inf) [10, 20] was 29500 ng·h/mL, the Cmax [10, 20] was 3170 ng/mL and the Tmax [10, 20] was 2 h. It also gave a bioavailability [10, 20] of 80%, a half-life [10, 20] of 3.12 h and an AUCinf/Dose ([10]; iv, rats) of 3448. For the same molecule, the Cmax/Dose ([10]; iv, rats) was 828, the “Oral exposure corrected with dose (AUCinf/dose), fold higher than that of idelalisib” value ([10]; oral dose 10 mg/kg, SD rats, versus idelalisib) was 20 fold and the AUCinf/Dose ([10]; po, 10 mg/kg, SD rats) was 2949. The “Cl” value ([10]; po, 10 mg/kg, SD rats) was 4.6 mL/min/kg, the Cmax/Dose ([10]; po, 10 mg/kg, SD rats) was 317 and the IC50 [3] was 0.216 µM. It also gave an IC50 [4, 12] of 0.931 µM, an IC50 [5, 13] of 0.088 µM and an IC50 [6, 14] of 0.493 µM. For the same molecule, the IC50 [7, 15] was 0.035 µM.
C[C@H](Nc1ncnc(N)c1C#N)c1cc2ccc(F)cc2nc1-c1cccc(F)c1 [G, reference compound] showed a half-life at 1 μM [2, 11] of 1.2 h and a half-life at 1 μM [2, 18] of less than 1.5 h.
Work on N.N.[Cl][Pt][Cl] [Cisplatin] yielded an IC50 [3] of 2.59 µM, an IC50 ([4]; cell viability) of 0.749 µM and an IC50 ([5]; cell viability) of 0.507 µM. For the same molecule, the IC50 ([6]; cell viability) was 0.28 µM and the IC50 ([7]; cell viability) was 5.61 µM.
Molecule C[C@H](Nc1ncnc(N)c1C#N)c1cc2ccc(F)cc2nc1-c1ccccn1 [H, reference compound] has a half-life at 1 μM [2, 11] of 0.88 h and a half-life at 1 μM [2, 18] of less than 1 h.
Molecule C[C@H](Nc1nc(N)nc(N)c1C#N)c1cc2cccc(F)c2nc1-c1ccccn1 [Compound 6, (S)-2,4-Diamino-6-[1-(8-fluoro-2-pyridin-2-yl-quinolin-3-yl)-ethylamino]-pyrimidine-5-carbonitrile] has a half-life at 1 μM [2, 11] of 9 h.
Molecule C[C@H](Nc1nc(N)nc(N)c1C#N)c1cc2cccc(F)c2nc1-c1ccccc1S(C)(=O)=O [Compound 7, (S)-2,4-Diamino-6-{1-[8-fluoro-2-(2-methanesulfonyl-phenyl)-quinolin-3-yl]-ethylamino}-pyrimidine-5-carbonitrile] has an IC50 [1] of 2.1 nM, a half-life at 1 μM [2, 11] of 59 h and a half-life at 1 μM [2, 18] greater than 48 h.
In the case of C[C@H](Nc1nc(N)nc(N)c1C#N)c1cc2ccc(F)cc2nc1-c1cccc(F)c1 [Compound 5, (S)-2,4-diamino-6-{1-[7-fluoro-2-(3-fluoro-phenyl)-quinolin-3-yl]-ethylamino}-pyrimidine-5-carbonitrile], the IC50 [1] is reported as 0.14 nM, the half-life at 1 μM [2, 11] is reported as 20 h and the half-life at 1 μM [2, 18] is reported as greater than 12 h.
Work on C[C@H](Nc1nc(N)nc(N)c1C#N)c1cc2cccc(Cl)c2nc1-c1ccccn1 [Compound 8, (S)-2,4-Diamino-6-[1-(8-chloro-2-pyridin-2-yl-quinolin-3-yl)-ethylamino]-pyrimidine-5-carbonitrile] yielded an IC50 [1] of 0.97 nM.
